Experimental data taken from patent US20040033967A1, “Alkylated hexitol nucleoside analogues and oligomers thereof” (priority 2000, published 2004).

Assays:
Format in all cases: binding
[1] = tested on: complementary RNA; experiment: Thermal stability of octameric HNA sequences versus RNA; details: octamers versus RNA, entries C and D
Excerpt: Hybridisation is the sequence specific base pair hydrogen bonding of bases of the oligonucleotide to bases of target RNA or DNA Such base pairs are said to be complementary to one another. In determining the extent of hybridization of an oligonucleotide to a complementary nucleic acid, the relative ability of an oligonucleotide to bind to the complementary nucleic acid may be compared by determining the melting temperature of a particular hybridisation complex. The melting temperature (Tm), a characteristic physical property of double helices, denotes the temperature in degrees centigrade, at which 50% helical (hybridized) versus coil (unhybridized) forms are present. Tm is measured by using the UV spectrum to determine the formation and breakdown (melting) of the hybridisation complex. Base stacking which occurs during hybridisation, is accompanied by a reduction in UV absorption (hypochromicity). Consequently, a reduction […]. The higher the Tm, the greater the strength of the bonds between the strands. The results in Table 3 confirm the results of Table 2 (example 35). […] The effect is however less than for the duplexes containing ANA or those containing the 5-methyl modification (entry E with a ΔTm/modification=1° C. and C with ΔTm/modification=2° C., respectively). […]

[2] = tested on: RNA complement; experiment: Tm of hexameric hexitol sequences hybridised with RNA complement; details: hexamers
Excerpt: (§1) Hybridisation is the sequence specific base pair hydrogen bonding of bases of the oligonucleotide to bases of target RNA or DNA Such base pairs are said to be complementary to one another. In determining the extent of hybridization of an oligonucleotide to a complementary nucleic acid, the relative ability of an oligonucleotide to bind to the complementary nucleic acid may be compared by determining the melting temperature of a particular hybridisation complex. The melting temperature (Tm), a characteristic physical property of double helices, denotes the temperature in degrees centigrade, at which 50% helical (hybridized) versus coil (unhybridized) forms are present. Tm is measured by using the UV spectrum to determine the formation and breakdown (melting) of the hybridisation complex. Base stacking which occurs during hybridisation, is accompanied by a reduction in UV absorption (hypochromicity). Consequently, a reduction […]. The higher the Tm, the greater the strength of the bonds between the strands.
However, this increase is less pronounced than the increase in thermal stability obtained by modifying the nucleobase with a methyl substituent in the 5-position (ΔTm=+1.1° C./modification), (compare entry A and D). […]

[3] = tested on: HNA complement; experiment: Tm of hexameric hexitol sequences hybridised with HNA complement; details: hexamers
Excerpt: as §1
As an example a study with pyrimidine hexamers was done as depicted in Table 2. […]

SMILES	increase in Tm compared with the hexitol T reference [1]	ΔTm compared to HNA, pairing with RNA sequences [2]	ΔTm compared to HNA, pairing with hexitol oligonucleotides ([3]; hexitol (HNA, ANA) complements)	ΔTm compared to the unmodified HNA:HNA duplex ([3]; complementary HNA, Table 2)
COC1O[C@H](CO)[C@@H](O)C[C@@H]1n1cc(C)c(=O)[nH]c1=O (stereo partly drawn) [2.2, Methyl 2-(thymin-1-yl)-2,3-dideoxy-D-arabino-hexopyranoside]	1.6 °C	≈ +0.3 ° C./modification	≈ +0.8 ° C./modification	–
CO[C@@H]1[C@H](O)[C@@H](CO)OC[C@H]1n1ccc(=O)[nH]c1=O [1.1, 1,5-anhydro-3-O-methyl-2-(uracil-1-yl)-2-deoxy-altro-hexitol]	–	–	–	+0.6 ° C./modification
